Reference: DBAASP
≈ marks a conversion by molar mass, not a printed value. Blank lines part the entries; values can stand above or below the molecule they belong to.

Key:
Assay in all cases: ≥ marks a high value that may be exact or a test limit, other limits are often not marked, values filed in µg/mL are converted to µM
[1] = tested on: Psychrobacter faecalis X29
[2] = tested on: Enterococcus faecalis 981
[3] = tested on: Staphylococcus aureus ATCC 25923
Candida glabrata 090902 = tested on: Candida glabrata 090902
[4] = tested on: Nocardia asteroides 201118
[5] = tested on: Klebsiella pneumoniae 08040724
[6] = tested on: Enterococcus faecium 091299
[7] = tested on: Enterobacter cloacae CGMCC 1.57
[8] = tested on: Salmonella enterica subsp. enterica serovar Typhimurium ATCC 14028
[9] = tested on: Staphylococcus aureus ATCC 6538
[10] = tested on: Klebsiella pneumoniae ATCC 10031
[11] = tested on: Escherichia coli ATCC 11219
[12] = tested on: Pseudomonas aeruginosa ATCC 13388
[13] = tested on: Pseudomonas aeruginosa ATCC 27853
[14] = tested on: Staphylococcus aureus ATCC 33591
[15] = tested on: Staphylococcus epidermidis ATCC 35984
[16] = tested on: Escherichia coli NEB5alpha
[17] = tested on: Bacillus subtilis ATCC 6051
Bacillus subtilis A47 = tested on: Bacillus subtilis A47
Escherichia coli 44102 = tested on: Escherichia coli 44102
[18] = tested on: Staphylococcus aureus 22401
[19] = tested on: Staphylococcus aureus RN4220
[20] = tested on: Pseudomonas fluorescens NCIMB 9046
[21] = tested on: Cronobacter sakazakii DSM 4485
[22] = tested on: Staphylococcus aureus RF122
[23] = tested on: Cronobacter muytjensii ATCC 51329
[24] = tested on: Salmonella enterica subsp. enterica serovar Typhimurium LT2
[25] = tested on: Staphylococcus aureus SA113
[26] = tested on: Klebsiella pneumoniae NCIMB 13218
[27] = tested on: Staphylococcus aureus NCTC 8325-4
[28] = tested on: Staphylococcus aureus Newman
[29] = tested on: Escherichia coli NCIMB 11843
[30] = tested on: Cronobacter sakazakii DPC 6440
[31] = tested on: Cronobacter sakazakii ATCC BAA-894

- MIC [1]: 3.1 µM (≈ 9.56 µg/mL)
- MIC [5]: ≥ 100 µM
- MIC [6]: 25 µM (≈ 77.1 µg/mL)
- MIC [2]: ≥ 100 µM
- MIC [3]: 50 µM (≈ 154 µg/mL)
- MIC [7]: ≥ 50 µM
- MIC [4]: 6.3 µM (≈ 19.4 µg/mL)
Structure (SMILES): CC[C@H](C)[C@@H]1NC(=O)[C@H](CCCCN)NC(=O)[C@@H](NC(=O)[C@H](CCCCN)NC(=O)[C@H](CC(C)C)NC(=O)[C@H](CCCCN)NC(=O)[C@H](CC(=O)O)NC(=O)[C@H](CC(C)C)NC(=O)[C@H](CC(C)C)NC(=O)[C@@H](NC(=O)[C@@H](NC(=O)[C@H](C)NC(=O)[C@@H](NC(=O)[C@H](CC(N)=O)NC(=O)[C@H](CCCCN)NC(=O)[C@H](Cc2ccccc2)NC(=O)[C@@H](NC(=O)[C@H](CC(N)=O)NC(=O)[C@H](CCCCN)NC(=O)[C@H](C)NC(=O)[C@@H](NC(=O)[C@H](CC(=O)O)NC(=O)[C@H](CCSC)NC(=O)[C@H](Cc2ccccc2)NC(=O)CN)[C@@H](C)O)C(C)C)C(C)C)C(C)C)[C@@H](C)O)CSSC[C@@H](C(=O)O)NC(=O)CNC(=O)CNC(=O)[C@H](C)NC1=O [GFMDTAKNVFKNVAVTLLDKLKCKIAGGC]

- MIC [16]: ≥ 169 µM
- MIC [17]: ≥ 42.3 µM
Structure (SMILES): CC[C@H](C)[C@H](NC(=O)[C@@H](N)Cc1cnc[nH]1)C(=O)N[C@@H](CCC(N)=O)C(=O)N[C@@H](CCCCN)C(=O)N[C@@H](CCC(=O)O)C(=O)N[C@@H](CC(=O)O)C(=O)N[C@H](C(=O)N1CCC[C@H]1C(=O)N[C@@H](CO)C(=O)N[C@@H](CCC(=O)O)C(=O)N[C@@H](CCCN=C(N)N)C(=O)N[C@@H](Cc1ccc(O)cc1)C(=O)N[C@@H](CC(C)C)C(=O)NCC(=O)N[C@@H](Cc1ccc(O)cc1)C(=O)N[C@@H](CC(C)C)C(=O)N[C@@H](CCC(=O)O)C(=O)N[C@@H](CCC(N)=O)C(=O)N[C@@H](CC(C)C)C(=O)N[C@@H](CC(C)C)C(=O)N[C@@H](CCCN=C(N)N)C(=O)N[C@@H](CC(C)C)C(=O)N[C@@H](CCCCN)C(=O)N[C@@H](CCCCN)C(=O)N[C@@H](Cc1ccc(O)cc1)C(=O)N[C@@H](CCCCN)C(=O)O)C(C)C [HIQKEDVPSERYLGYLEQLLRLKKYK]

- MIC (Bacillus subtilis A47): ≥ 50 µM
- MIC (Escherichia coli 44102): ≥ 50 µM
- MIC [18]: 12.5 µM (≈ 32.4 µg/mL)
Structure (SMILES): CC(C)C[C@H](NC(=O)CNC(=O)[C@H](Cc1ccccc1)NC(=O)[C@H](CC(C)C)NC(=O)[C@H](CCCN=C(N)N)NC(=O)[C@H](CC(C)C)NC(=O)[C@H](Cc1c[nH]c2ccccc12)NC(=O)CNC(=O)[C@H](CO)NC(=O)[C@H](CCCN=C(N)N)NC(=O)[C@H](CCCN=C(N)N)NC(=O)[C@H](CCC(=O)O)NC(=O)[C@H](CC(C)C)NC(=O)[C@H](C)NC(=O)[C@@H](N)CC(C)C)C(=O)N[C@@H](CCCCN)C(=O)N1CCC[C@H]1C(=O)N[C@@H](CCCN=C(N)N)C(=O)N[C@@H](CCCN=C(N)N)C(=O)N[C@@H](CCCCN)C(=O)N[C@@H](Cc1cnc[nH]1)C(=O)O [LALERRSGWLRLFGLKPRRKH]

Further lines, the molecule ahead of its results:

Structure (SMILES): CC[C@H](C)[C@H](NC(=O)[C@@H](NC(=O)[C@H](CCCCN)NC(=O)CNC(=O)[C@H](CC(C)C)NC(=O)[C@@H](NC(=O)[C@@H]1CCCN1C(=O)[C@H](CC(C)C)NC(=O)[C@@H](N)Cc1ccccc1)C(C)C)C(C)C)C(=O)N[C@@H](CCCCN)C(=O)N[C@@H](CC(C)C)C(=O)N[C@H](C(=O)NCC(=O)NCC(=O)N[C@@H](CC(C)C)C(=O)N[C@@H](CC(C)C)C(N)=O)C(C)C [FLPVLGKVIKLVGGLL]
- MIC [1]: ≥ 50 µM
- MIC [2]: 3.1 µM (≈ 5.16 µg/mL)
- MIC [3]: 3.1 µM (≈ 5.16 µg/mL)
- MIC (Candida glabrata 090902): ≥ 50 µM
- MIC [4]: 3.1 µM (≈ 5.16 µg/mL)

Structure (SMILES): CC[C@H](C)[C@H](NC(=O)CN)C(=O)N[C@@H](Cc1cnc[nH]1)C(=O)N[C@@H](CC(=O)O)C(=O)N[C@H](C(=O)N[C@@H](CC(C)C)C(=O)N[C@@H](C)C(=O)N[C@@H](Cc1ccc(O)cc1)C(=O)NCC(=O)N[C@@H](CCCCN)C(=O)N1CCC[C@H]1C(=O)N[C@@H](CO)C(N)=O)[C@@H](C)CC [GIHDILAYGKPS]
- MIC [8]: 15 µM (≈ 19 µg/mL)
- MIC [9]: 10 µM (≈ 12.7 µg/mL)
- MIC [10]: 20 µM (≈ 25.4 µg/mL)
- MIC [11]: 15 µM (≈ 19 µg/mL)
- MIC [12]: 15 µM (≈ 19 µg/mL)

Structure (SMILES): CC[C@H](C)[C@H](NC(=O)CN)C(=O)N[C@@H](Cc1cnc[nH]1)C(=O)N[C@@H](CC(=O)O)C(=O)N[C@H](C(=O)N[C@@H](CC(C)C)C(=O)N[C@@H](CCCCN)C(=O)N[C@@H](Cc1ccc(O)cc1)C(=O)NCC(=O)N[C@@H](CCCCN)C(=O)N1CCC[C@H]1C(=O)N[C@@H](C)C(N)=O)[C@@H](C)CC [GIHDILKYGKPA]
- MIC [8]: > 50 µM
- MIC [9]: > 50 µM
- MIC [10]: 30 µM (≈ 39.3 µg/mL)
- MIC [11]: ≥ 50 µM
- MIC [12]: ≥ 50 µM

Structure (SMILES): CC[C@H](C)[C@H](NC(=O)[C@H](CCCCN)NC(=O)[C@@H](NC(=O)[C@H](Cc1ccccc1)NC(=O)[C@H](C)NC(=O)[C@H](CCCCN)NC(=O)CNC(=O)[C@H](Cc1ccccc1)NC(=O)[C@H](CCCCN)NC(=O)[C@H](CCCCN)NC(=O)[C@H](C)NC(=O)[C@H](CCCCN)NC(=O)[C@H](CCCCN)NC(=O)[C@H](CC(C)C)NC(=O)[C@H](Cc1ccccc1)NC(=O)[C@H](CCCCN)NC(=O)CN)C(C)C)C(N)=O [GKFLKKAKKFGKAFVKI]
- MIC [13]: 0.73 µM (≈ 1.41 µg/mL)
- MIC [3]: 132 µM (≈ 256 µg/mL)
- MIC [14]: ≥ 264 µM
- MIC [15]: 5.84 µM (≈ 11.3 µg/mL)

Structure (SMILES): CC[C@H](C)[C@H](NC(=O)[C@H](CCCCN)NC(=O)[C@@H](NC(=O)[C@H](Cc1ccccc1)NC(=O)[C@H](C)NC(=O)[C@H](CCCCN)NC(=O)CNC(=O)[C@H](Cc1ccccc1)NC(=O)[C@@H](N)CCCCN)C(C)C)C(=O)N[C@@H](CC(C)C)C(=O)N[C@@H](CCCCN)C(=O)N[C@@H](CCCCN)C(N)=O [KFGKAFVKILKK]
- MIC [13]: 16.1 µM (≈ 22.6 µg/mL)
- MIC [3]: 257 µM (≈ 362 µg/mL)
- MIC [14]: ≥ 257 µM
- MIC [15]: ≥ 64.3 µM

Structure (SMILES): CC[C@H](C)[C@H](NC(=O)[C@H](CO)NC(=O)[C@H](CCC(=O)O)NC(=O)[C@H](CCCCN)NC(=O)[C@@H](NC(=O)[C@@H](N)CCCCN)C(C)C)C(=O)N[C@H](C(=O)N[C@@H](CCCN=C(N)N)C(=O)N[C@@H](CCCCN)C(=O)N[C@@H](CC(C)C)C(=O)O)[C@@H](C)CC [KVKESIIRKL]
- MIC [16]: ≥ 1000 µM
- MIC [17]: ≥ 500 µM

Structure (SMILES): CC(C)C[C@H](NC(=O)[C@H](CC(C)C)NC(=O)[C@H](CC(N)=O)NC(=O)[C@H](CCC(=O)O)NC(=O)[C@H](CC(N)=O)NC(=O)[C@H](C)NC(=O)[C@@H](N)C(C)C)C(=O)N[C@@H](CCCN=C(N)N)C(=O)O [VANENLLR]
- MIC [19]: ≥ 2500 µM
- MIC [20]: ≥ 2500 µM
- MIC [21]: ≥ 1250 µM
- MIC [22]: ≥ 2500 µM
- MIC [23]: ≥ 1250 µM
- MIC [24]: ≥ 2500 µM
- MIC [25]: ≥ 2500 µM
- MIC [26]: ≥ 2500 µM
- MIC [27]: ≥ 1250 µM
- MIC [28]: ≥ 2500 µM
- MIC [29]: ≥ 2500 µM
- MIC [30]: ≥ 1250 µM
- MIC [31]: ≥ 2500 µM
